Reference: US12286657B2, “Methods and compositions” (United Kingdom Research and Innovation, priority 2018, dated 2025)

Experiments:
[1] = system: TEDAP (Vlm TE, serine 2463 replaced by DAP); test: depsipeptidyl-TE complex formation with TEDAP (LC-ESI-MS); type: biochemical, Streptomyces tsusimaensis; conditions: incubation with TEDAP
Vlm TEwt = test: LC-ESI-MS analysis of Vlm TE reaction products, TEwt; type: biochemical, Streptomyces tsusimaensis; conditions: incubation with Vlm TEwt
Procedure: (§1) Extracted ion chromatograms (EICs) from HR-LC-ESI-MS of reactions of tetradepsipeptidyl-SNAC 7 (1.7 mM) and Vlm TE (6.5 μM). a, TEwt produces valinomycin as its major product. […] See Supplementary Table 2 for accurate mass analysis and deviations from calculated m/z values of each compound.
(§2) Purified TEwt or TEDAP at 0.2 mg mL-1 (6.5 μM) was incubated with tetradepsipeptidyl-SNAC 7 (1.7 mM), or a mix of tetradepsipeptidyl-SNAC 7 and deoxytetradepsipeptidyl-SNAC 8 (1.7 mM each) in buffer T. Samples were incubated at room temperature for 24 hours, and then quenched with one volume of 0.1% formic acid in acetonitrile. Next, samples were centrifuged at 20,000 g, flash frozen in liquid nitrogen and stored at −80° C. before HPLC analysis. For HPLC-MS analysis, frozen samples were thawed at room temperature, vortexed and clarified by centrifugation at 20,000 g before injection. HR-LC-ESI-MS was performed at the Mass Spectroscopy Facility (Department of Chemistry, McGill University) with an Agilent XDB-C8 (5 μm, 4.6×150 mm) column in a Dionex Ultimate 3000 UHPLC system coupled to a Bruker maXis impact QTOF mass spectrometer in positive ESI mode. […] Data was analyzed using the Bruker DataAnalysis software and the SmartFormula tool (Bruker).

TEDAP = test: LC-ESI-MS analysis of Vlm TE reaction products, TEDAP; type: biochemical, Streptomyces tsusimaensis; conditions: incubation with TEDAP
Procedure: as §1, §2

[2] = system: PCC1RS/tRNACUA and PCC2RS/tRNACUA pairs; test: amber codon suppression in reporter genes with photocaged-cysteine synthetase pairs; type: cell-based; conditions: cells provided with 3 or 4 and the relevant pair
Text: Compounds 3 and 4 contain a conservative SH to NH2 substitution relative to photocaged cysteine derivatives that we have previously incorporated into proteins using the PCC1RS/tRNACUA and PCC2RS/tRNACUA pairs, respectively^32. (These pairs were derived from the pyrrolysyl-tRNA synthetase/tRNACUA pair).

[3] = free amino acid (lysine sidechain; beta amino group of DAP); cited from earlier work
HA-tagged Ub = test: ubiquitination test with UBE2L3 variants; type: biochemical; conditions: for E2-Ub complex formation: 0.2 μM E1, HA-tagged Ub, E2 loading buffer; for redox sensitivity of complex with Ub: presence of ß-mercaptoethanol
Procedure: Ubiquitination test with UBE2L3(C86DAP). […] Ub-UBE2L3: Thioester-linked (UBE2L3[wt]) or isopeptidelinked (UBE2L3[C86DAP]) E2-Ub complex.
In order to test whether UBE2L3(C86DAP5), which had been irradiated with UV light and incubated overnight at 37° C., could be charged with Ub, a reaction containing 0.2 μM E1 and HA-tagged Ub in E2 loading buffer was set up. Each reaction (positive control [wt], negative control [C86A] and [C86DAP]) was performed with and without Ub (see FIG. 23).

[4] = storage and handling of DAP amino acid 6-TFA; type: physicochemical
Text: Storage: The dry sample of DAP amino acid 6-TFA was stored in air-tight dark glass vials in a cold, dry and dark environment and was stable for over 3 years without decomposition.
It is noteworthy that the vial containing 6-TFA taken out from the fridge or freezer was always allowed to warm to r.t. prior to opening and handling.

E. coli = test: LC-MS based amino acid uptake assay (intracellular concentration of DAP derivatives); conditions: addition of 1 mM 6 to cell media
Ub-tev-His6 = test: reactions of TEV with Ubtev (SDS-PAGE, western blot); type: biochemical; conditions: SDS-PAGE and western blot
Text: The use of TEV(wt) results in cleavage of the TEV cleavage sequence. The use of TEV(C151A) results in minimal cleavage. The presence of DAP in the active site of TEV results in the presence of a new band in the coomassie gel, representing the isopeptide-linked TEV(C151DAP)-Ub complex (left). αUb and αStrep western blots of the reactions confirm the identity of the complex (TEV constructs contain a Strep tag). b, Tandem mass spectrometry of isopeptide-linked TEV(C151DAP)-Ub complex. Tandem mass spectrometry unambiguously identifies the DAP modification at the desired site and the expected tev-Gly-Gly modification on the residue, consistent with Ub trapping on DAP.
Tryptic MS/MS of the slower mobility band identifies the isopeptide linkage between DAP and Ub, confirming formation of the TEVDAP-Ub (FIG. 4b). Therefore, the substitution of the catalytic cysteine in TEV with DAP enables the creation of a protease that goes through the first step of the protease cycle: nucleophilic attack on the substrate carbonyl to form the first tetrahedral intermediate. This intermediate collapses, releasing the C-terminal fragment of the substrate and leaving the N-terminal fragment of the substrate covalently attached to the protease, through a stable amide bond that is not subject to hydrolysis. […]

Question: Which results are given for CC(=O)NCCSC(=O)C(NC(=O)C(C)OC(=O)C(NC(=O)C(O)C(C)C)C(C)C)C(C)C [tetradepsipeptidyl-SNAC 7, HO-D-Hiv-D-Val-L-Lac-L-Val-SNAC]?
Answer: acyl-TEDAP conjugate formation yield [1]: > 60%; valinomycin production (Vlm TEwt): led to production of valinomycin; valinomycin synthesis (TEDAP): did not observe valinomycin synthesis

Question: Which “suppression of amber codons in reporter genes” value [2] does the source give for N[C@@H](CNCc1ccccc1[N+](=O)[O-])C(=O)O [Compound 3] here?
Answer: did not function to suppress amber codons

Question: Which “acyl-TEDAP conjugate formation yield” value [1] does the source give for CC(C)[C@@H]1NC(=O)[C@H](C)OC(=O)[C@@H](C(C)C)NC(=O)[C@@H](C(C)C)OC(=O)[C@H](C(C)C)NC(=O)[C@H](C)OC(=O)[C@@H](C(C)C)NC(=O)[C@@H](C(C)C)OC(=O)[C@H](C(C)C)NC(=O)[C@H](C)OC(=O)[C@@H](C(C)C)NC(=O)[C@@H](C(C)C)OC1=O [valinomycin, reference compound] here?
Answer: 65-100%

Question: With NC[C@H](N)C(=O)O (stereo in doubt) [Compound 1, 2,3-diaminopropionic acid] as the molecule, how does the “pKa of the conjugate acid of the sidechain amine” value [3] read?
Answer: 9.4

Question: What does the source list for “UBE2L3(wt): wild type UBE2L3, positive control”?
Answer: E2-Ub complex formation (HA-tagged Ub): higher molecular weight band could be observed; redox sensitivity of complex with Ub (HA-tagged Ub): redox sensitive

Question: With CC(=O)NCCSC(=O)[C@@H](NC(=O)[C@@H](C)OC(=O)[C@@H](NC(=O)CC(C)C)C(C)C)C(C)C (single isomer, unassigned) [deoxy-tetradepsipeptidyl-SNAC 8] as the molecule, how does the “acyl-TEDAP conjugate formation yield” value [1] read?
Answer: ~70%

Question: For CC(NC[C@H](N)C(=O)O)c1cc2c(cc1[N+](=O)[O-])OCO2 (some centres unmarked) [Compound 4], which “suppression of amber codons in reporter genes” value [2] is on record?
Answer: did not function to suppress amber codons

Question: What does the source list for “UBE2L3(C86DAP): UBE2L3 with DAP at position 86”?
Answer: E2-Ub complex formation (HA-tagged Ub): higher molecular weight band could also be detected; redox sensitivity of complex with Ub (HA-tagged Ub): redox insensitive

Question: With CC(SCCOC(=O)NC[C@H](N)C(=O)O)c1cc2c(cc1[N+](=O)[O-])OCO2 (mixture of isomers) [Compound 6] as the molecule, how does the “stable without decomposition on storage” value ([4]; dry sample, air-tight dark glass vials, cold, dry and dark environment) read?
Answer: over 3 years

Question: And the “light and moisture sensitivity on handling” value ([4]; exposure to moist air)?
Answer: light sensitive and slightly hygroscopic

Question: What about the intracellular concentration (E. coli) of the same molecule?
Answer: approximately 2 mM

B1: TEVDAP: TEV protease with amino acid 1 (DAP) at position 151 (protein)
chain: GESLFKGPRDYNPISSTICHLTNESDGHTTSLYGIGFGPFIITNKHLFRRNNGTLLVQSLHGVFKVKNTTTLQQHLIDGRDMIIIRMPKDFPPFPQKLKFREPQREERICLVTTNFQTKSMSSMVSDTSCTFPSSDGIFWKHWIQTKDGQCGSPLVSTRDGFIVGIHSASNFTNTNNYFTSVPKNFMELLTNQEAQQWVSGWRLNADSVLWGGHKVFMSKPEEPFQPVKEATQLMN
Question: With B1 as the molecule, how does the “outcome of incubation with Ub-tev-His6” value (Ub-tev-His6) read?
Answer: formation of a new band

B2: wild-type TEV: wild-type tobacco etch virus protease (protein)
chain: GESLFKGPRDYNPISSTICHLTNESDGHTTSLYGIGFGPFIITNKHLFRRNNGTLLVQSLHGVFKVKNTTTLQQHLIDGRDMIIIRMPKDFPPFPQKLKFREPQREERICLVTTNFQTKSMSSMVSDTSCTFPSSDGIFWKHWIQTKDGQCGSPLVSTRDGFIVGIHSASNFTNTNNYFTSVPKNFMELLTNQEAQQWVSGWRLNADSVLWGGHKVFMSKPEEPFQPVKEATQLMN
Question: With B2 as the molecule, how does the “outcome of incubation with Ub-tev-His6” value (Ub-tev-His6) read?
Answer: cleaves Ub-tev-His6
